Laboratory results reported in patent publication US20250034185A1 (priority 2021, published 2025).
“Also recorded” adds a separate entry of the source.

How the values were obtained:
plasma enzymes = conditions: Sprague Dawley, rat
[1] = Pharmacokinetic study 1: P5P and P5P analog 16, IV and PO, rats; format: in vivo; conditions: rat
Procedure: Pharmacokinetic study 1 was carried out (see Example 98: P5P analog 16i: Pharmacokinetic study 1) to assess if P5P analog 16i was able to be converted to P5P and increase plasma P5P, to assess if P5P analog 16i was orally available, and to compare the ability of PO P5P analog 16i and PO P5P to increase plasma P5P.
In order to isolate the effects of the administered P5P analog 16i on pyridoxine (PL) and P5P (PLP) levels, the basal levels of both PL and P5P were subtracted from the measured concentrations. Baseline subtraction was accomplished by subtracting pre-dose concentrations of either PL or P5P from the subsequent values in the time course.
Formulation—Both P5P (pyridoxal-5-phosphate) and P5P analog 16 were formulated in phosphate buffered saline (PBS) as homogenous solutions on the day of dosing.
Animals and group—13 CD ♂ rats with an approx. weigh of ˜250 g were used. Animals were split into 4 groups+1 extra (n=3 for each group). Animals were allowed a 5-day acclimatization period in animal facility. The animal room environment was controlled (temperature 22 f 0.2° C.; relative humidity 55 f 25%; 12 hours light/dark cycle, and 12 air changes per hour). A standard certified commercial rodent chow was provided to the animals ad libitum. Procedures involving the care and use of animals in this study were reviewed and approved by the Institutional Animal Care and Use Committee (IACUC) prior to conduct. One day prior to dosing on D-1, Rats were divided in 4 groups (Table 7). Rats in Group 3 and 4 were fasted overnight (12-14 hours) with access to water.
On day 0, animals were identified, weighted, and dosed by intravenous (IV) injection or oral gavage (PO) as described in Table 7. Food tray were returned to Group 3 and 4, 2 hrs post dosing.
Blood was collected at indicated time points below for all groups: Pre-dose, 5′, 15′, 30′, 1 h, 2 h, 4 h, 6 h, 8 h, 24 h.
About 150 μL of blood was collected at indicated time points below using K2EDTA tubes. Blood was kept on ice until centrifugation at 4° C. at 6000 RCF for 10 min. Plasma was collected and kept on dry ice until transferred at −80° C.

Structure (SMILES) | P5P formed (plasma enzymes) | relative P5P formed (plasma enzymes) | other results
[2H]C([2H])([2H])C(OC(=O)[C@H](C)NP(=O)(OCc1cnc(C)c(O)c1C=O)Oc1ccccc1)C([2H])([2H])[2H] (stereo partly shown) [Compound 16xxii] | 6.3 µM | 153.7% | 
Cc1ccc(OC(=O)[C@H](C)NP(=O)(OCc2cnc(C)c(O)c2C=O)Oc2ccccc2)cc1 (stereo partly drawn) [Compound 16xxiii, (2S)-p-Tolyl 2-(((4-formyl-5-hydroxy-6-methylpyridin-3-yl)methoxy)(phenoxy)phosphorylamino)propanoate] | 2 µM | 74.1% | 
Cc1ncc(COP(=O)(N[C@@H](C)C(=O)OC2CCCC2)Oc2ccccc2)c(C=O)c1O (stereo partly drawn) [Compound 16xxiv, (2S)-Cyclopentyl 2-(((4-formyl-5-hydroxy-6-methylpyridin-3-yl)methoxy)(phenoxy)phosphorylamino)propanoate] | 2.2 µM | 129.4% | 
Cc1ncc(COP(=O)(N[C@@H](Cc2ccc(OCc3ccccc3)cc2)C(=O)OC(C)C)Oc2ccccc2)c(C=O)c1O (stereo partly drawn) [Compound 16xxix, (2S)-Isopropyl 3-(4-(benzyloxy)phenyl)-2-(((4-formyl-5-hydroxy-6-methylpyridin-3-yl)methoxy)(phenoxy)phosphorylamino)propanoate] | 2.4 µM | 58.5% | 
[2H]C([2H])(OP(=O)(N[C@@H](C)C(=O)OC(C)C)Oc1ccccc1)c1cnc(C)c(O)c1C=O (stereo partly shown) [Compound 16xxvii] | 2 µM | 69.0% | 
Cc1ncc(COP(=O)(N[C@H](C(=O)OC(C)C)C2CCCC2)Oc2ccccc2)c(C=O)c1O (stereo partly drawn) [Compound 16xxviii, (2S)-Isopropyl 2-cyclopentyl-2-(((4-formyl-5-hydroxy-6-methylpyridin-3-yl)methoxy)(phenoxy)phosphorylamino)acetate] | 0.4 µM | 9.8% | 
Cc1ncc(COP(=O)(N[C@@H](Cc2ccc(O)cc2)C(=O)OC(C)C)Oc2ccccc2)c(C=O)c1O (stereo partly drawn) [Compound 16xxx, (2S)-Isopropyl 2-(((4-formyl-5-hydroxy-6-methylpyridin-3-yl)methoxy)(phenoxy)phosphorylamino)-3-(4-hydroxyphenyl)propanoate] | 2.2 µM | 75.9% | 
Cc1ncc(COP(=O)(N[C@@H](C)C(=O)OC2CCN(C)CC2)Oc2ccccc2)c(C=O)c1O (stereo partly drawn) [Compound 16xxxi, (2S)-1-Methylpiperidin-4-yl 2-(((4-formyl-5-hydroxy-6-methylpyridin-3-yl)methoxy)(phenoxy)phosphorylamino)propanoate] | 0.4 µM | 13.8% | 
COCCOC(=O)[C@H](C)NP(=O)(OCc1cnc(C)c(O)c1C=O)Oc1ccccc1 (stereo partly drawn) [Compound 16xxxii, (2S)-2-Methoxyethyl 2-(((4-formyl-5-hydroxy-6-methylpyridin-3-yl)methoxy)(phenoxy)phosphorylamino)propanoate] | 4.9 µM | 144.1% | 
COC(=O)[C@@H]1CCCN1P(=O)(OCc1cnc(C)c(O)c1C=O)Oc1ccccc1 (stereo partly drawn) [Compound 16xxxiii, (2S)-Methyl 1-(((4-formyl-5-hydroxy-6-methylpyridin-3-yl)methoxy)(phenoxy)phosphoryl)pyrrolidine-2-carboxylate] | 0.4 µM | 11.8% | 
Cc1ncc(COP(=O)(N[C@@H](C)C(=O)Oc2ccc3c(c2)CCCC3)Oc2ccccc2)c(C=O)c1O (stereo partly drawn) [Compound 16xxxiv, (2S)-5,6,7,8-Tetrahydronaphthalen-2-yl 2-(((4-formyl-5-hydroxy-6-methylpyridin-3-yl)methoxy)(phenoxy)phosphorylamino)propanoate] | 4.9 µM | 144.1% | 
Cc1ncc(COP(=O)(N[C@@H](C)C(=O)OC(C)C)Oc2ccc(Br)cc2F)c(C=O)c1O (stereo partly drawn) [Compound 16xxxix, (2S)-Isopropyl 2-((4-bromo-2-fluorophenoxy)((4-formyl-5-hydroxy-6-methylpyridin-3-yl)methoxy)phosphorylamino)propanoate] | 2.3 µM | 92.0% | 
Cc1ncc(CO[P@@](=O)(N[C@@H](C)C(=O)OC(C)C)Oc2ccccc2)c(/C=N/C2CCCC2)c1O [Compound 16xxxvi, (S)-Isopropyl 2-((S)-((4-((E)-(cyclopentylimino)methyl)-5-hydroxy-6-methylpyridin-3-yl)methoxy)(phenoxy)phosphorylamino)propanoate] | 3.8 µM | 152.0% | 
Cc1ccc(OP(=O)(N[C@@H](C)C(=O)OC(C)C)OCc2cnc(C)c(O)c2C=O)cc1 (stereo partly drawn) [Compound 16xxxvii, (2S)-Isopropyl 2-(((4-formyl-5-hydroxy-6-methylpyridin-3-yl)methoxy)(p-tolyloxy)phosphorylamino)propanoate] | 0.3 µM | 12.0% | 
Cc1ncc(COP(=O)(N[C@@H](C)C(=O)OCc2ccccc2)Oc2ccccc2)c(/C=N/CCc2ccc(C#N)cc2)c1O (stereo partly drawn) [Compound 16xxxviii, (2S)-Benzyl 2-(((4-((E)-(4-cyanophenethylimino)methyl)-5-hydroxy-6-methylpyridin-3-yl)methoxy)(phenoxy)phosphorylamino)propanoate] | 0.5 µM | 14.7% | 
Cc1ncc(COP(=O)(O)O)c(C=O)c1O [Compound P5P, pyridoxal-5-phosphate] |  |  | overall exposure of P5P ([1]; IV 1 mg/kg): approximately 2200 ng/ml*hr; time after which the dosed compound is no longer left/detectable in the plasma ([1]; IV 1 mg/kg): 4 h; total exposure of pyridoxal (above baseline values) ([1]; IV 1 mg/kg): 770 ng/ml*hr; plasma P5P Cmax ([1]; IV 1 mg/kg, PBS): 3373 ng/mL; oral bioavailability of P5P ([1]; PO 10 mg/kg vs IV 1 mg/kg): 0%; plasma pyridoxal Cmax ([1]; oral gavage 10 mg/kg): 3668 ng/mL; P5P detected in the plasma over the 24-hour assessment period ([1]; oral gavage 10 mg/kg, 10 mg/kg): no detectable P5P; also recorded: not detected
